According to patent US20110002877A1, “PTEN Inhibitors Treat Neutropenia-Associated Pneumonia” (priority 2009, published 2011):

Tested on: circulating neutrophils
Settings: day 5; two i.p. injections, total 250 mg/kg (150 mg/kg day 1, 100 mg/kg day 4)
Source text: We first examined neutrophil recruitment and its bacteria-killing capability under neutropenic conditions. We induced neutropenia using a widely used chemotherapeutic drug, cyclophosphamide (Cy), which is used primarily to treat cancer.
We also examined neutrophil recruitment and its bacteria-killing capability under neutropenic conditions. We induced neutropenia using a widely used chemotherapeutic drug, cyclophosphamide (Cy).

## O=P1(N(CCCl)CCCl)NCCCO1 (stereo not shown) [Cy, cyclophosphamide]
  fewer circulating neutrophils than the untreated group: approximately 90%
